Source: ChEMBL document CHEMBL1201862, “PubChem BioAssay data set” (2004)
Activity calls are given as the source filed them.

Assays:
[1] = viability inhibitors of stage V gametocytes – luminescence, dose response (AID 1117278); type: functional, cell-based;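 also: gametocytes exposed to compound for 24 hours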
[2] = viability loss in human Jurkat cells – cell-based, luminescence, cytotoxicity control for P. falciparum gametocyte viability project, dose response (AID 1117277); type: functional;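 also: potency reflects loss of cellular ATP meaning fewer viable cells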
HeLa = experiment: ATP-based viability loss in HeLa cells – cell-based, CellTiter-Glo luminescence, cherry-pick samples, cytotoxicity control for MITF activator project, dose response (AID 540259); type: functional; details: Homo sapiens
[3] = luciferase reporter signal suppression in cells – H4 neuroglioma cells, luminescence, dose response (AID 1990); type: functional, cell-based
[4] = Luminescence Cell-Based Dose Response HTS to Identify Inhibitors of 5'UTR Stem-Loop Driven Prion Protein mRNA Translation in H4 Neuroglioblastoma Cells. [Related pubchem assays: 1827 (Project Summary), 1813 (Primary HTS)]; type: functional
[5] = alpha-synuclein stem-loop luciferase translation blockers – H4 neuroglioma cells, luminescence, confirmation (AID 1988); type: functional, cell-based
[6] = HEK-293T cell viability reduction – luminescence, B-cell screen hits, cytotoxicity control for BCR NF-kB inhibitor project, dose response (AID 489021); type: functional, cell-based;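 also: HEK-293T cells carrying an NF-kB luciferase reporter; cells exposed to compound for about 14 hours before viability readout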
H9c2 = experiment: cells; type: functional, cell-based; details: Rattus norvegicus, H9c2, Myocardium;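 also: confirmatory concentration-response retest of ultra-high-throughput screening hits for modulation of myocardial damage; cell death induced by hydrogen peroxide oxidative stress; compound pretreatment for 60 min then peroxide exposure for 2 h; potency is for protecting the cells against peroxide damage rather than for killing them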
[7] = reduced cellular PGC1a acetyl-lysine signal – cell-based, cherry-picked samples, dose response (AID 720514); type: functional;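 also: potency may reflect raised or lowered acetylation signal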
[8] = viability loss in THP-1 monocytes – THP-1 cells, cytotoxicity control for Vif-APOBEC3G degradation inhibitor project, dose response (AID 1117359); type: functional; details: THP-1
[9] = HIV-1 Vif–A3G interaction blockers – biochemical, TR-FRET, GST-Vif 1-94, biotin-A3G peptide, dose response retest, primary screen (AID 1117319); type: functional;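 also: TR-FRET signal of purified GST-Vif binding a biotinylated A3G peptide; inhibitors lower the FRET signal by blocking Vif and A3G binding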
[10] = viability of PTEN-deleted HCT116 cells – cell-based, HCT116 PTEN knockout, dose response (AID 1047); type: functional;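 also: HCT116 colon tumor cells with PTEN knocked out; cells exposed to compound for 60 hours before readout; potency for loss of cell viability measured by luminescence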
[11] = viability of HCT116 lacking mutant beta-catenin – cell-based, human colon tumor, dose response (AID 1045); type: functional;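 also: HCT116 colon tumor cells with beta catenin knocked out; cells exposed to compound for 60 hours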
[12] = target: Heat shock protein HSP 90-alpha (Homo sapiens, UniProt P07900); experiment: Luminescence-based dose response biochemical high throughput screening assay for inhibitors of the Heat Shock Protein 90 (HSP90). [Related pubchem assays: 1831 (Summary AID.), 1846 (Confirmation screen.), 1789 (Primary screen.)]
BJ [13] = experiment: BJ-TERT fibroblast viability loss – cell-based, RAS-independent, luminescence, dose response (AID 1933); type: functional; details: Homo sapiens
BJ [14] = experiment: cells; type: functional, cell-based; details: Homo sapiens
BJ [15] = experiment: BJ-TERT-LT-ST fibroblast viability loss – cell-based, RAS-independent, luminescence, dose response (AID 1935); type: functional; details: Homo sapiens;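 also: BJ fibroblasts immortalized with TERT plus LT and ST oncogenes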
[16] = DRD fibroblast viability loss – cell-based, non-viral oncogenic, luminescence, dose response (AID 1934); type: functional; details: Homo sapiens
[17] = Luminescence Cell-Based Dose Retest to Confirm Inhibitors of Cancer Stem Cells. [Related pubchem assays (depositor defined):AID2717, AID2721]; type: functional; details: Homo sapiens
[18] = target: Disintegrin and metalloproteinase domain-containing protein 17 (Homo sapiens, UniProt P78536); experiment: exosite inhibitors of ADAM17, dose response, biochemical (AID 743260)
Chain of Disintegrin and metalloproteinase domain-containing protein 17 (P78536 whole entry, the tested form may be a part): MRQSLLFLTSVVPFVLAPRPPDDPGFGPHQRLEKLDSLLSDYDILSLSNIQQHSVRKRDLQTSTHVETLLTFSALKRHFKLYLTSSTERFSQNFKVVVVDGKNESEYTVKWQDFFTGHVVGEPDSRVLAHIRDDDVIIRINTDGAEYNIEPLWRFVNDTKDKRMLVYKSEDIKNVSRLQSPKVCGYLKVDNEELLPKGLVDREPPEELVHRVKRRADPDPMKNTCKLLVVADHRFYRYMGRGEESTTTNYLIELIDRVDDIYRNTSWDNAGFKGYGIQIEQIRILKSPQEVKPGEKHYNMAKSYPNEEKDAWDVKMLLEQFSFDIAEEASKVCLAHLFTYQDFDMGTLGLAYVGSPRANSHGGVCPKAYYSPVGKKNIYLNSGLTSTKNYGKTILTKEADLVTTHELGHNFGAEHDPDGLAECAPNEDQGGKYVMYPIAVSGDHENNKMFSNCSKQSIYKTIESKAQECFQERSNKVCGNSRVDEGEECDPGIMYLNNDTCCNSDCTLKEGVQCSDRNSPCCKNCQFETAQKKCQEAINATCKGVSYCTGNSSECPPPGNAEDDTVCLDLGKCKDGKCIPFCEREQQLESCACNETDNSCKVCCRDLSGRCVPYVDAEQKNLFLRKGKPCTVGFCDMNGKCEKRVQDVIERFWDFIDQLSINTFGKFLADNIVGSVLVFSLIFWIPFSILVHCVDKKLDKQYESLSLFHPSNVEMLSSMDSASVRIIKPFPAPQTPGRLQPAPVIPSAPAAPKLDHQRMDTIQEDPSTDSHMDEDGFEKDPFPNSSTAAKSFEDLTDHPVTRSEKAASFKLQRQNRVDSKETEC

[19] = inhibition of ADAM10 peptide cleavage – biochemical, FRET peptide substrate, recombinant human ADAM10, selectivity assay for ADAM17 exosite inhibitor project, dose response (AID 743259);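 also: ADAM10 enzyme cleaving a FRET peptide substrate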

**Q.** Which results are given for O=S(=O)(Nc1ccncc1)c1ccccc1?
**A.** IC50 [1]: > 109 µM (inactive); IC50 [2]: > 83.3 µM (inactive)

**Q.** With Cc1cccc2c1-c1sc(C(=O)N3CCCCC3)cc1CO2 as the compound, how does the AC50 (HeLa) read?
**A.** The AC50 was > 350 µM (inactive).

**Q.** With Cc1c(CCC(=O)NCCCn2ccnc2)c(=O)oc2c(C)c3oc4c(c3cc12)CCCC4 as the compound, how does the EC50 [3] read?
**A.** Its EC50 is 13.7 µM (active).

**Q.** And the EC50 [4]?
**A.** Its EC50 is 17.8 µM (active).

**Q.** What about the EC50 [5] of the same compound?
**A.** The EC50 was 14.6 µM (active).

**Q.** What about the IC50 [6] of the same compound?
**A.** Its IC50 is 63.6 µM (inactive).

**Q.** With Brc1ccc2nc(N3CCN(c4ccccc4)CC3)sc2c1 as the compound, how does the IC50 [1] read?
**A.** The IC50 was > 109 µM (inactive).

**Q.** And the IC50 [2]?
**A.** Its IC50 is > 83.2 µM (inactive).

**Q.** Which results are given for CC(=O)Nc1ccc(Nc2nc(-c3sc(NC(C)=O)nc3C)cs2)cc1?
**A.** IC50 [6]: 20.6 µM (inactive); IC50 (H9c2): > 79 µM (inactive)

**Q.** Which AC50 [7] does the source give for Cc1nc(Nc2ccc(S(N)(=O)=O)cc2)sc1C(=O)Nc1ccccc1 here?
**A.** The AC50 was 3.05 µM (active).

**Q.** And the CC50 [8]?
**A.** Its CC50 is > 40 µM (active).

**Q.** For O=C(O)c1ccc(COc2c(F)c(F)c(F)c(F)c2F)o1, which IC50 [9] is on record?
**A.** The IC50 was > 100 µM (active).

**Q.** Which EC50 [10] does the source give for Clc1cccc(-c2cc3nc4c(c(N5CCNCC5)n3n2)CCCC4)c1 here?
**A.** The EC50 was 8.22 µM (active).

**Q.** What about the EC50 [11] of the same compound?
**A.** The EC50 was 7.97 µM (active).

**Q.** For COc1ccc(/C=C/c2noc(-c3ccccc3OC(C)=O)n2)cc1, which IC50 [12] is on record?
**A.** The IC50 was 3.29 µM (active).

**Q.** Which EC50 (BJ [13]) does the source give for Cc1cc2c(C)cc(O)nc2cc1NC(=O)CCl here?
**A.** Its EC50 is 17.7 µM (active).

**Q.** What about the EC50 (BJ [14]) of the same compound?
**A.** The EC50 was > 150 µM (not active).

**Q.** What about the EC50 (BJ [15]) of the same compound?
**A.** Its EC50 is > 150 µM (not active).

**Q.** What about the EC50 [16] of the same compound?
**A.** The EC50 was 42.2 µM (active).

**Q.** With COc1ccc(CC(=O)OCC(=O)NCc2ccco2)cc1OC as the compound, how does the CC50 [8] read?
**A.** Its CC50 is > 40 µM (active).

**Q.** What about the IC50 [9] of the same compound?
**A.** Its IC50 is > 100 µM (active).

**Q.** Which IC50 [9] does the source give for O=C(CCN1CCOCC1)NCC(=O)Nc1ccc(Br)cc1C(=O)c1ccccc1 here?
**A.** Its IC50 is > 100 µM (active).

**Q.** For CN(CCc1ccccc1)C(=O)c1ccc(NC(=O)Cc2ccc(NC(=O)C3CCN(C(=O)CCc4ccccc4)CC3)cc2)cc1, which CC50 [8] is on record?
**A.** Its CC50 is > 40 µM (active).

**Q.** Which IC50 [9] does the source give for Cc1ccc(S(=O)(=O)N(CC(=O)N/N=C/c2cccc3c2OCCO3)c2ccccc2F)cc1 here?
**A.** Its IC50 is > 100 µM (active).

**Q.** What does the source list for O=C(Nc1cccc(-c2csc(-c3ccccc3)n2)c1)c1cccs1?
**A.** AC50 [17]: 3.38 µM (active); IC50 [18]: > 69.5 µM (inactive); IC50 [19]: > 69.5 µM (inactive)
